Source: patent publication US11299453B2 (Universität zu Köln, priority 2017, dated 2022)

What was measured:
Assay type in all cases: cell-based
[1] = test system: colony forming PSCs in pre-purified cardiac clusters of murine ESC line αPIG44-D3; assay: Colony formation assay after treatment of pre-purified mESC cardiac clusters; conditions: 48 h
Description: (§1) Aiming at complete elimination of remaining PSCs in PSC-derived cell aggregates, murine cardiac clusters were pre-purified with 2-4 μg/ml puromycin from day 9 until day 14 of differentiation in order to prevent complete removal of PSCs and then treated with SM6 for 2 days to assess its potential for removal of contaminating PSCs in the absence of puromycin. After treatment, cardiac clusters were dissociated with 0.25% trypsin-EDTA supplemented with 50 U/ml of DNase I and the level of PSC contamination was determined using colony formation assay, flow cytometry for SSEA-1 and RT-PCR for Oct4. In colony formation assays 2×10^5 cells were plated on a 6 cm cell culture dish containing MEF and cultured in maintenance medium supplemented with 1000 U/ml of mLIF for 7-10 days. Developing PSC colonies on MEF plates were quantified and visualized with 1% crystal violet (Fluka Analytical, St. Louis, USA) diluted in methanol (Applichem).
To confirm the PSC-eliminating effect of the compound SM6, pre-purified cardiac clusters derived from transgenic murine ESC line αPIG44-D3 were also treated with SM6. The cells were differentiated in spinner flasks and incubated for 48 h with compound SM6 as described above with the exception that pre-purification was performed with 4 μg/ml of puromycin between day 9 and day 14, as schematically illustrated in FIG. 7a).

[2] = test system: contaminating colony-forming PSCs in unpurified EBs of murine iPSCs; assay: Colony formation assay after treatment of unpurified EBs; conditions: day 9 to day 16: SM6 1 μM then 5 μM from day 14; puromycin 8 μg/ml
Description: as §1
Purifying the whole CM population including GFP-negative CMs in murine PSC-derived EBs was tested with SM6 as well. […] The percentage of CM population in EBs was monitored by flow cytometry and the amount of contaminating PSCs was quantified by colony formation assay as described above. Fluorescence images of PSC-derived cell aggregates were captured with a Zeiss Axiovert 200M fluorescence microscope and analyzed with Zeiss Axiovision 4.5 software. […]

[3] = test system: residual PSCs in pre-purified cardiac clusters of murine αPIG-AT25 iPSCs; assay: Colony formation assay after treatment of pre-purified miPSC cardiac clusters; conditions: 48 h
Description: as §1
Murine αPIG-AT25 iPSCs were differentiated in spinner flasks and pre-purification of CMs with puromycin was initiated on day 9 for a time period of 5 days, as is schematically illustrated in FIG. 6a). Compared to the standard protocol for the selection of miPSC-CMs, the applied concentration of puromycin was reduced from 8 μg/ml to 2 μg/ml in order to preserve a small population of PSCs in the cardiac clusters which were then treated with 1 μM, 5 μM and 10 μM of compound SM6 for 48 hours.
For quantifying the residual PSCs, the cardiac cluster-derived cells were cultured on MEFs under iPSC conditions to allow PSCs to form colonies which were visualized by crystal violet staining. The pluripotency of grown colonies was confirmed by immunocytochemical stainings for Oct4, at day 7 after plating of CMs from dissociated cardiac clusters on MEF.

[4] = test system: unpurified EBs of murine iPSCs; assay: Flow cytometry (cTnT) and cell yield of unpurified EBs; conditions: for cTnT+ CM population / fold increase of CM purity (cTnT+) compared to DMSO-treated control / reduction of total cell yield relative to DMSO control: day 9 to day 16: SM6 1 μM then 5 μM from day 14, puromycin 8 μg/ml
Description: Purifying the whole CM population including GFP-negative CMs in murine PSC-derived EBs was tested with SM6 as well. EBs from day 9 of differentiation were treated starting with 1 μM of SM6 for 5 days followed by treatment with 5 μM from day 14 until day 16 of differentiation. The percentage of CM population in EBs was monitored by flow cytometry and the amount of contaminating PSCs was quantified by colony formation assay as described above. Fluorescence images of PSC-derived cell aggregates were captured with a Zeiss Axiovert 200M fluorescence microscope and analyzed with Zeiss Axiovision 4.5 software.
Determination of CM purity in the cell population was performed by flow cytometric analysis. PSC-derived EBs or cardiac clusters were dissociated with 0.25% trypsin-EDTA. Dead cells were stained with LIVE/DEAD fixable dead cell stain kit (Life Technologies) prior to cell fixation using in 4% PFA for 15 min. Immunological staining of cardiac Troponin T (cTnT) was performed in order to detect the total CM population including GFP-negative CMs. […] An anti-cTnT mouse antibody (sc-20025, Santa Cruz, Dallas, USA) and the corresponding isotype control (sc-3878, Santa Cruz) were diluted 1:50 in 0.8% BSA in PBS with 1% saponin and incubated for 30 min at 4° C., respectively. After washing the cells with PBS, cells were incubated with an AF555-conjugated secondary antibody (1:100, A21422, Life Technologies) in 0.8% BSA and 1% saponin in PBS for 1 h at 4° C.
Cells were measured with an Attune acoustic focusing cytometer (Life Technologies) and data was analyzed with the Attune Cytometric software v1.2.5 (Life Technologies). Marker expression was analyzed in a gated population of 10^4 viable cells.
In order to determine whether it is possible to entirely replace puromycin pre-treatment with SM6 and thus circumvent the need for genetic manipulation of PSCs to enable CM selection, the SM6 was supplemented to the differentiation medium of miPSCs from day 9 onwards starting with a concentration of 1 μM which was increased to 5 μM from day 14 until day 16 of differentiation, as is schematically illustrated in FIG. 8a). Control cells received 0.025% DMSO or 8 μg/ml puromycin during this time period (day 9 to day 16 of differentiation).

SMILES | reduction of the number of ESC-derived colonies compared to DMSO control ([1]; 1 μM) | reduction of the number of ESC-derived colonies compared to DMSO control ([1]; 5 μM) | reduction of the number of ESC-derived colonies compared to DMSO control ([1]; 10 μM) | reduction of contaminating colony-forming PSCs [2] | reduction of the number of colonies compared to DMSO-treated control ([3]; 1 μM) | number of colonies after plating of 2×10^5 cells ([3]; 5 μM) | number of colonies after plating of 2×10^5 cells ([3]; 10 μM) | fold higher yield of cTnT+ CMs compared to the treatment with puromycin ([4]; SM6 1 μM then 5 μM from day 14, p<0.01) | cTnT+ CM population [4] | fold increase of CM purity (cTnT+) compared to DMSO-treated control [4] | reduction of total cell yield relative to DMSO control [4] | CM yield higher compared to the DMSO-treated control group ([4]; in three out of five experiments) | reduction of the number of ESC-derived colonies compared to DMSO control ([1]; puromycin 8 μg/ml) | number of colonies after plating of 2×10^5 cells ([3]; puromycin 8 μg/ml) | reduction of the number of colonies compared to DMSO-treated control ([3]; puromycin 8 μg/ml)
Oc1ccccc1CN[C@@H]1CCCC[C@H]1NCc1ccccc1O [SM6, (1R,2R)-N,N′-di(2-hydroxybenzyl)-1,2-diaminocyclohexane] | 20.03±26.95% | 93.75±3.45% | 96.23±0.75% | 98.88±1.04% | 71.9±21.19% | 2.00±2.94 colonies | 0.37±0.60 colonies | 2.72±1.61 fold | 77.57±12.26% | 2.56±1.25 fold | 56.6±10.44% | 31-86% |  |  | 
COc1ccc(C[C@H](N)C(=O)N[C@H]2[C@@H](O)[C@H](n3cnc4c(N(C)C)ncnc43)O[C@@H]2CO)cc1 [puromycin, reference compound] |  |  |  | 97.55±4.02% |  |  |  |  | 93.26±3.05% | 3.08±1.42 fold | 92.17±3.53% |  | 47.83±24.89% | 28.9±23.37 colonies | 64.87±25.55%
